Experiment [1] deals with KG-1. The experiment is described as follows: Cell viability (CELL TITER-GLO), Compound 1 IC50. The experiment is classed as cell-based. As to conditions: Homo sapiens; KG-1 (myeloblast, FAB M0). The protocol: (§1) For CELL TITER-GLO® (CTG; Promega) and Incucyte assays, cells were seeded at 0.1 million per mL, 50 μL per well of Corning black 384-well plate and allowed set overnight. The next day, test compounds were dispensed using a Tecan D300e digital dispenser according to manufacturer's instruction.
(§2) Human AML cell lines, HL-60 (CCL-240), KG-1 (CCL-246), ML-2 (ACC-15), MOLM-13 (ACC-554), MV-4-11 (CRL-9591), NOMO-1 (ACC-542), TF-1 (CRL-2003), THP-1 (TIB-202), and U937 (CRL-1593) were obtained from American Type Culture Collection (ATCC; Manassas, VA) or Deutsche Sammlung von Mikroorganismen and Zellkulturen (DSMZ, Germany) cell banks. Acute myeloid leukemia cell lines were maintained in RPMI-1640 (ATCC Cat No. 30-2001) containing 20% fetal bovine serum (FBS) (Corning Cat No. 35-010-CV) and maintained in humidified incubators at 5% carbon dioxide.
(§3) AML cell lines and primary AML were treated in duplicate or triplicates with DMSO or test compounds in 384-well plates for 3 days. Cell viability was determined by CELL TITER-GLO® (CTG; Promega) assay kit according to manufacturer's instructions. Apoptosis was monitored using Caspase 3/7 Green reagent (Essen Biosciences Cat No. 4440). Caspase-3/7 activation levels were quantified using the IncuCyte™ ZOOM basic analyzer.
(§4) Cell proliferation (CTG) and caspase 3/7 activation (IncuCyte) were analyzed using GraphPad Prism. Electrochemiluminescence data was analyzed using MSD Discovery Workbench platform.
In general terms: Cellular ATP, detected with luciferase, serves as a proxy for viable cell number.

For experiment [2], the system named is MOLM-13. The experiment in a line: Cell viability (CELL TITER-GLO), Compound 1 IC50. In kind it is cell-based. To be noted: Homo sapiens; MOLM-13 (monocytic, FAB M5a). The protocol:
as §1, §2, §3, §4

Experiment [3] has as its system MV4-11. The experiment in a line: Cell viability (CELL TITER-GLO), Compound 1 IC50. To be noted: Homo sapiens; MV4-11 (acute myeloid leukemia, FAB M5). The experiment is classed as cell-based. The protocol: as §1, §2, §3, §4
Experiment [4] has as its system ML-2 cells. The experiment is described as follows: Immunoblot analysis of target proteins. The experiment is classed as cell-based, human. The protocol:
Cells were washed in ice-cold 1×PBS twice before harvest in Cell Extraction Buffer (ThermoFisher Cat No. FNN0011) supplemented with 1× Halt Protease Inhibitor Cocktail (ThermoFisher Cat No. 78429). Whole cell extracts were collected after centrifugation at 14,000 g for 10 minutes, resolved on 4-12% Bis-Tris Novex Precast Gels (ThermoFisher Cat No. WG1403A), transferred onto a nitrocellulose membrane using the Turboblot Turbo Transfer System (Bio-Rad), and probed with the indicated primary antibodies. Bound antibodies were detected with IRDye-680 or -800 conjugated secondary antibodies using a LI-COR scanner.
Antibodies used for immunoblot: mouse anti-human GSPT-1 mAb conjugated with AL647 (clone number GSPT1-164-17G9-G6, Celgene, San Diego, CA), IL-1β (R&D Systems, Cat No. AF-201-NA), cleaved caspase 3 (Cell Signaling, Cat No. 9664S), alpha-tubulin (Cell Signaling, Cat No. 3873S), cleaved Caspase-8 (Cell Signaling, Cat No. 9748S), Caspase-1 (Cell Signaling, Cat No. 3866S), HA tag (Cell Signaling, Cat No. 3724), phosphor-eIF2a (Cell Signaling, Cat No. 9721), total eIF2a (Cell Signaling, Cat No. 9722), ATF4 (Cell Signaling, Cat No. 11815S), CHOP (Abcam, Cat No. 11419), GAPDH (Cell Signaling, Cat No. 5174), rabbit anti-mouse 800 antibody (LI-COR Biosciences), rabbit anti-mouse 680 antibody (LI-COR Biosciences), mouse anti-rabbit 680 antibody (LI-COR Biosciences), mouse anti-rabbit 800 antibody (LI-COR Biosciences)
The level of intracellular pro IL-1β and released IL-1β in eight AML cell lines and normal PBMC treated with a titration of Compound 1 over a 48 hour period was assessed. (see FIGS. 1A-1C, Table 2). Supernatant IL-1βb level was induced over 5 fold in 6 out of 8 AML cell lines and normal PBMC upon Compound 1 treatment compared to DMSO (FIGS. 1A, 1B, and 1C, Table 2).
(In general: Immunoblotting shows a protein as a band on a membrane.)

Experiment [5] concerns ML-2. The experiment is described as follows: Caspase 8/FLICE activity colorimetric assay. The experiment is classed as cell-based, human. To be noted: compounds at 1 μM, 24, 48 and 72 hours. The protocol:
(§5) Next, tests were performed to see if caspase 8 activation alone is sufficient to mediate IL-1β induction. […] To ensure caspase 8 activity was captured at an appropriate time frame, caspase 8 activation levels at 24, 48 and 72 hours were measured (FIGS. 3C and 3D) using a caspase 8/FLICE activity colorimetric assay.

Experiment [6] concerns MV4-11. The experiment is described as follows: Caspase 8/FLICE activity colorimetric assay. In kind it is cell-based, human. To be noted: compounds at 1 μM, 24, 48 and 72 hours. The protocol: as §5
Experiment [7] has as its system MOLM13 cell pair expressing wildtype GSPT1 or GSPT1 G575N. The experiment in a line: Isogenic cell pair, endogenous GSPT1 vs non-degradable GSPT1 G575N. The experiment is classed as cell-based, human. To be noted: MOLM13 overexpressing GSPT1 G575N. From the text: To further confirm if IL-1β induction is an on-target effect of GSPT1 degradation, intracellular pro-IL-1β and secreted IL-1βb levels in response to Compound 1 treatment were compared in an isogenic MOLM13 cell pair either expressing endogenous wildtype GSPT1 or overexpressing a non-degradable form of GSPT1 G575N.

For experiment [8], the system named is isogenic MV4-11 Cas9 cell pair (GCN2). The experiment is described as follows: Isogenic cell pair, wildtype GCN2 vs GCN2 deleted. In kind it is cell-based, human. From the text:
ISR, especially via GCN2 pathway, is one of the key pathways contributed to GSPT1 mediated cell death. GCN2 knock down blocked ATF4 and CHOP induction by Compound 1, and suppressed caspase 3 and caspase 8 activation. GCN2 has been implicated in IL-1β production. GCN2 activation inhibit classical caspase 1 mediated inflammasome activation in intestinal cells and that GCN2 knock down in CD11c+ antigen presenting cells or intestinal epithelial cells leads to enhanced inflammasome activation and IL-1β production. (Ravindran et al. Nature. 2016, 531(7595):523-527). To understand if Compound 1 mediated IL-1β induction is downstream of GCN2 pathway, an isogenic MV4-11 Cas9 cell pair either expressing endogenous wildtype GCN2 or with the gene deleted was used. GCN2 knock down suppressed the induction of phosphor-eIF2a, ATF4, CHOP and cleaved caspase 8 by Compound 1 (FIG. 9A). […] These evidences pointed that pro-[…] up-regulation and secreted IL-1β induction are both downstream effects of GCN2 pathway activation, and distinct from the GCN2 mediated classical inflammasome pathway inhibition reported in gut cells (Ravindran et al. Nature. 2016, 531(7595):523-527).

Experiment [9] relates to ML-2. The experiment is described as follows: Cytokine induction, electrochemiluminescence assay of culture supernatant. As to conditions: compounds at 1 μM, 72 hours. The experiment is classed as cell-based, human.

As to `O=C1CCC(N2Cc3cc(CNC(=O)C(F)(F)c4ccc(Cl)cc4)ccc3C2=O)C(=O)N1` (centres unmarked) [Compound 1, 2-(4-chlorophenyl)-N-((2-(2,6-dioxopiperidin-3-yl)-1-oxoisoindolin-5-yl)methyl)-2,2-difluoroacetamide], the values for the IC50 in [1], in [2] and in experiment [3] were 8.9 nM, 76.2 nM and 17.3 nM, respectively. Also, in [4] (24, 48 and 72 hours, doses conferring similar caspase3/7 activation and viability loss), the “Intracellular pro-IL-1β (immunoblot)” value is reported as “conferred induction”. For the same molecule, the “Cleaved caspase 3 (immunoblot)” value in experiment [4] (24 hours) is given as “concurrent induction of cleaved caspase 3”. In [4] (two high doses of Compound 1 at 24 hours), the “GSPT1 level (immunoblot)” value is “significant reduction of GSPT1”. In addition, the “Caspase 8 activation level” value in experiment [5] and in [6] was “not the most efficient caspase 8 activating compound across all time points tested” in each case. The “Compound 1 mediated GSPT1 degradation, caspase 3 activation and viability loss” value in experiment [7] is “complete resistance”. Moreover, the “Pro-IL-1β, intracellular and supernatant IL-1β induction” value in experiment [7] is recorded as “completely blocked”. In addition, the “Induction of phosphor-eIF2a, ATF4, CHOP and cleaved caspase 8” value in experiment [8] (GCN2 knock down) is reported as “suppressed”. Also, the “Intracellular and supernatant IL-1β induction” value in experiment [8] (GCN2 knock out cells compared to parental cells) is given as “markedly suppressed”. Moreover, the Pro-IL-1β upregulation result in experiment [8] (absence of GCN2) is on record as “abolished”. Further, the “Secreted IL-1β levels, panel of mechanistic compounds” value in [9] was “produced markedly more secreted IL-1β compared to all other compounds tested”.

The IC50 is the concentration at which inhibition is half-maximal. Read a low IC50 as higher potency.

(Values after patent US12090147B2, “Combination therapy with 2-(4-chlorophenyl)-N-((2-(2,6-dioxopiperidin-3-yl)-1-oxoisoindolin-5-yl)methyl)-2,2-difluoroacetamide” (Celgene Corporation, priority 2019, dated 2024).)
